The source of these data is ChEMBL document CHEMBL5244281, “Tackling multidrug-resistant Staphylococcus aureus by natural products and their analogues acting as NorA efflux pump inhibitors” (Bioorg Med Chem, 2023).

In experiment [1] the test system is Mycolicibacterium smegmatis. In words: Antibacterial activity against Mycobacterium smegmatis ATCC 607 assessed as bacterial growth inhibition incubated for 3 days by CLSI protocol based microbroth dilution method. It counts as functional. The following applies: ATCC 607, 72 h, time 3 day. On the technique in general: Dilution methods test growth across graded concentrations, often in twofold steps.

Experiment [2] relates to Staphylococcus aureus. The experiment is described as follows: Antibacterial activity against Staphylococcus aureus NCTC 8325-4 assessed as bacterial growth inhibition incubated for 18 hrs by broth microdilution method. It counts as functional.
Experiment [3] has as its target T1, Quinolone resistance protein NorA (Staphylococcus aureus) (UniProt P0A0J7).
T1 sequence (whole entry): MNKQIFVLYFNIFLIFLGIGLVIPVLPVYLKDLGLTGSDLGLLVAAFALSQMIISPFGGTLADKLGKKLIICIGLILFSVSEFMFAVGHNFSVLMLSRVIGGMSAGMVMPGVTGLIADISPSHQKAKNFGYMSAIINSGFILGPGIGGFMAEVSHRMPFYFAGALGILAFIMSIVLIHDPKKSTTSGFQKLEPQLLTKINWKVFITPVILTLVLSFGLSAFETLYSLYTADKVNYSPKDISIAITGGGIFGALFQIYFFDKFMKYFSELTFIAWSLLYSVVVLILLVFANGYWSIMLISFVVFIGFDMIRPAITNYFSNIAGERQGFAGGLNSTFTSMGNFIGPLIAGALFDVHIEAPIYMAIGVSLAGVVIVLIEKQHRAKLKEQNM
In words: Inhibition of NorA efflux pump in methicillin-resistant Staphylococcus aureus clinical isolate assessed as decrease in ciprofloxacin MIC and measured for 20 mins in presence of ciprofloxacin by spectrofluorimetric analysis (Rvb=128 ug/ml).

The target in experiment [4] is T1, Quinolone resistance protein NorA (Staphylococcus aureus). The experiment is described as follows: Inhibition of NorA efflux pump in Staphylococcus aureus 1199B overexpressing NorA efflux pump assessed as decrease in ciprofloxacin MIC and […] (Rvb=8 ug/ml).
Experiment [5] concerns Staphylococcus aureus. In words: Synergistic antibacterial activity against methicillin-resistant Staphylococcus aureus clinical isolate assessed as fractional inhibitory concentration index in presence of ciprofloxacin by checkerboard assay. It counts as functional.
Experiment [6] deals with T1, Quinolone resistance protein NorA (Staphylococcus aureus). In words: Inhibition of NorA efflux pump in methicillin-resistant Staphylococcus aureus clinical isolate assessed as EtBr MIC using EtBr as substrate at 64 ug/ml and measured for 20 mins by spectrofluorimetric analysis (Rvb=[…] ug/ml). The following applies: dose 64.0 µg/ml.
The subject of experiment [7] is Staphylococcus aureus. The experiment is described as follows: Antibacterial activity against methicillin-resistant Staphylococcus aureus clinical isolate assessed as bacterial growth inhibition by broth dilution method. In kind it is functional.
Experiment [8] has as its system Staphylococcus aureus. In words: Potentiation of tetracycline-induced inhibition of TetK efflux pump in Staphylococcus aureus IS-58 overexpressing TetK efflux pump assessed as reduction in tetracycline MIC at 1/8 times of MIC incubated for 24 hrs by resazurin based assay (Rvb=192 ug/ml). Background: Alamar Blue is a resazurin reagent that responds to reducing activity.

Experiment [9] relates to Staphylococcus aureus. The experiment is described as follows: Antibacterial activity against Staphylococcus aureus IS-58 harboring TetK efflux pump protein assessed as bacterial growth inhibition incubated for 24 hrs by broth microdilution method. In kind it is functional.
Experiment [10] deals with Staphylococcus aureus. In words: Antibacterial activity against norfloxacin resistant Staphylococcus aureus 1199B harboring NorA efflux pump assessed as bacterial growth inhibition incubated for 24 hrs by broth microdilution method. In kind it is functional.
The target in experiment [11] is T1, Quinolone resistance protein NorA (Staphylococcus aureus). The following applies: 1199B.
For experiment [12], the system named is Staphylococcus aureus. The experiment is described as follows: Synergistic antibacterial activity against methicillin resistant Staphylococcus aureus clinical isolates assessed as fractional inhibitory concentration index in presence of ofloxacin. In kind it is functional.
The test system of experiment [13] is Staphylococcus aureus. The experiment is described as follows: Synergistic antibacterial activity against methicillin resistant Staphylococcus aureus clinical isolates assessed as fractional inhibitory concentration index in presence of ciprofloxacin. In kind it is functional.
Experiment [14] has as its system Staphylococcus aureus. The experiment is described as follows: Antibacterial activity against methicillin resistant Staphylococcus aureus clinical isolates assessed as bacterial growth inhibition. In kind it is functional.
In experiment [15] the test system is Staphylococcus aureus. In words: Synergistic antibacterial activity against methicillin resistant Staphylococcus aureus clinical isolates assessed as fractional inhibitory concentration index in presence of norfloxacin. It counts as functional.
Experiment [16] has as its system Staphylococcus aureus. The experiment is described as follows: Antibacterial activity against Staphylococcus aureus 1199B overexpressing NorA efflux pump assessed as bacterial growth inhibition incubated for 18 hrs by broth dilution method. In kind it is functional.
The target of experiment [17] is T1, Quinolone resistance protein NorA (Staphylococcus aureus). In words: Inhibition of NorA efflux pump in Staphylococcus aureus 1199B overexpressing NorA efflux pump assessed as decrease in ciprofloxacin MIC at 1/4 times MIC and measured for 45 mins in presence of ciprofloxacin by fluorimetric analysis (Rvb=8 ug/ml).
The target is the same in experiment [18]. In words: Inhibition of NorA efflux pump in Staphylococcus aureus 1199B overexpressing NorA efflux pump assessed as decrease in norfloxacin MIC at 1/4 times MIC and measured for 45 mins in presence of norfloxacin by fluorimetric analysis (Rvb=32 ug/ml).
For experiment [19], the system named is Staphylococcus aureus. In words: Antibacterial activity against Staphylococcus aureus K1758 with NorA knockout assessed as bacterial growth inhibition incubated for 18 hrs by broth dilution method. In kind it is functional.

Values after ≈ are worked out from the molar mass of the structure shown.

Turning to `COc1c(O)c(OC)c2oc(-c3ccc(O)cc3)c(OC)c(=O)c2c1O`, the MIC in [1] was 75 µg/mL (≈ 208 µM); with Staphylococcus aureus [2], over 800 µg/mL.
As for `COC(=O)/C=C/c1ccc(OCC(=O)Nc2ccc(C)cc2)c(OC)c1`, the MIC was 64 µg/mL in [3], 2 µg/mL in experiment [4], 4 µg/mL in experiment [6] and over 125 µg/mL in the experiment on Staphylococcus aureus [7]. In the experiment with Staphylococcus aureus [5], the “fractional inhibitory concentration index (FICI)” value came out at 0.75.
`CC1=CC[C@@H]([C@@](C)(O)CCCC(C)C)CC1`: the MIC in the experiment with Staphylococcus aureus [8] was 128 µg/mL; in the experiment on Staphylococcus aureus [9], at least 1020 µg/mL; in the experiment on Staphylococcus aureus [10], at least 1020 µg/mL; in experiment [11], 32 µg/mL (≈ 143 µM).
Consider `CC1=CCC[C@@]2(C)[C@@]1(C)CC[C@@H](C)[C@]2(C)CCC1=CC(=O)O[C@@H]1O`, for which the figures for the “fractional inhibitory concentration index (FICI)” value in the experiment with Staphylococcus aureus [12], in the experiment with Staphylococcus aureus [13] and in the experiment with Staphylococcus aureus [15] were 0.324, 0.324 and 0.315, respectively. In the experiment with Staphylococcus aureus [14], the MIC was determined as 15.6 µg/mL (≈ 47 µM).
Regarding `O=C(/C=C/c1ccco1)N/N=C/c1ccc(Br)o1`, the MIC with Staphylococcus aureus [16] was 64 µg/mL (≈ 207 µM); in experiment [17], 0.5 µg/mL; in experiment [18], 1 µg/mL; in the experiment on Staphylococcus aureus [19], 64 µg/mL (≈ 207 µM).
In the case of `CCN(CC)C(=O)/C=C/c1ccc(OC(C)=O)c(OC)c1`, the results for the MIC (in experiment [3]; in experiment [6]; with Staphylococcus aureus [7]) were 32 µg/mL, 4 µg/mL and over 125 µg/mL, respectively. Also, the “fractional inhibitory concentration index (FICI)” value with Staphylococcus aureus [5] was 0.325.
